Values quoted from earlier work, collected in patent EP0413839A1, “GHRH analogs” (The Administrators of The Tulane Educational Fund, priority 1989, dated 1991).
No end group written: not given here.

Settings: percent of the potency of hGRF

**Q.** With “hGRF(1-23)-NH₂ (YADAIFTNSYRKVLGQLSARKLL-NH2; UniProt P01286 32-54, looked up, fragment) [shortened hGRF fragment with amidated C-terminus]” as the substance, how does the “potency of hGRF” value read?
**A.** 0.24%

**Q.** For “hGRF(1-27)-NH₂ (YADAIFTNSYRKVLGQLSARKLLQDIM-NH2; UniProt P01286 32-58, looked up, fragment) [shortened hGRF fragment with amidated C-terminus]”, which “potency of hGRF” value is on record?
**A.** 1.12%

**Q.** Which “potency of hGRF” value does the source give for hGRF(1-29)OH here?
**A.** 12.6%

**Q.** Which “potency of hGRF” value does the source give for “hGRF(1-37)-NH₂ (YADAIFTNSYRKVLGQLSARKLLQDIMSRQQGESNQE-NH2; UniProt P01286 32-68, looked up, fragment) [fragment of human growth hormone releasing factor terminated with an amide group]” here?
**A.** at least 50%
